Settings: 293.14 K, Liquid, Vibrating tube method

FC(C(F)(F)F)C(F)(F)F [1,1,1,2,3,3,3-heptafluoropropane]
Settings | mass density [kg/m3]
5029 kPa | 1439.2
7613 kPa | 1453.4
7636 kPa | 1453.6
7664 kPa | 1453.8
7697 kPa | 1454
7725 kPa | 1454
7758 kPa | 1454.2
7801 kPa | 1454.4
7862 kPa | 1454.8
7886 kPa | 1454.8
7919 kPa | 1455.1
7952 kPa | 1455.3
7995 kPa | 1455.4
8024 kPa | 1455.6
8053 kPa | 1455.7
8087 kPa | 1455.9
8111 kPa | 1456.1
8140 kPa | 1456.2
8183 kPa | 1456.4
8211 kPa | 1456.6
8240 kPa | 1456.7
8283 kPa | 1456.9
8312 kPa | 1457.1
8350 kPa | 1457.4
8380 kPa | 1457.4
8410 kPa | 1457.7
8447 kPa | 1457.8
8480 kPa | 1457.9
8509 kPa | 1458.1
8542 kPa | 1458.3
9213 kPa | 1461.8
9292 kPa | 1462.1
9327 kPa | 1462.4
9357 kPa | 1462.4
9402 kPa | 1462.7
9437 kPa | 1462.7
9481 kPa | 1463
9511 kPa | 1463.2
9547 kPa | 1463.4
9584 kPa | 1463.5
9615 kPa | 1463.7
9655 kPa | 1464
9695 kPa | 1464.1
9731 kPa | 1464.2
9771 kPa | 1464.6
9807 kPa | 1464.6
9843 kPa | 1464.8
9879 kPa | 1464.9
9915 kPa | 1465.1
9946 kPa | 1465.3
10356 kPa | 1467.4
10403 kPa | 1467.6
10428 kPa | 1467.8
10474 kPa | 1467.9
10520 kPa | 1468.1
11001 kPa | 1470.5
12780 kPa | 1478.5
12814 kPa | 1478.8
12854 kPa | 1478.9
12939 kPa | 1479.2
13996 kPa | 1483.9
14034 kPa | 1484.1
16570 kPa | 1494.7
16613 kPa | 1494.8
16642 kPa | 1494.8
16676 kPa | 1495.1
16710 kPa | 1495.1
16801 kPa | 1495.6
17585 kPa | 1498.6
17619 kPa | 1498.8
19526 kPa | 1506.1
19555 kPa | 1506.3
19593 kPa | 1506.2
20937 kPa | 1511.3
21424 kPa | 1513.1
21528 kPa | 1513.4
21563 kPa | 1513.5
21593 kPa | 1513.7
21629 kPa | 1513.8
21779 kPa | 1514.5
21810 kPa | 1514.5
21855 kPa | 1514.7
21896 kPa | 1514.8
23767 kPa | 1521.3
32750 kPa | 1549.5
32783 kPa | 1549.7
32817 kPa | 1549.7
32855 kPa | 1549.9
32884 kPa | 1549.9
32926 kPa | 1550.1
32970 kPa | 1550.2
32998 kPa | 1550.3
33036 kPa | 1550.4
33075 kPa | 1550.3
33109 kPa | 1550.6
33143 kPa | 1550.6
33182 kPa | 1550.8
33215 kPa | 1550.9
33255 kPa | 1550.8
33293 kPa | 1551.1
33323 kPa | 1551.1
33367 kPa | 1551.3
33406 kPa | 1551.4

From the NIST ThermoML archive (doi:10.1021/je700260f)
